Legend:
[1] = system: neuroblastoma cell lines; test: Cell viability dose response curves in neuroblastoma cell lines; type: cell-based; conditions: in vitro, FIG. 2A
Procedure: Two sets of cell viability assays were performed to characterize [^211At]-Compound 1 in neuroblastoma, ovarian, and breast cancer cells. […] The first assay performed was a screen of 25 cell lines at a single concentration of 5 μCi/mL. […] Following treatment cell viability was assessed using a commercially available kit that measures ATP and data was normalized to healthy controls to produce % surviving fraction. […] Cells were treated for 72 hrs followed by evaluation of cell viability. […] Effective concentrations to reduce 50% growth compared to healthy controls were calculated using standard curve fitting software.

[2] = system: phosphorylated ATM and H2AX; test: Flow cytometry of phosphorylated ATM and H2AX (DNA double strand breaks); type: cell-based; conditions: 1 μCi/mL
Procedure: To accomplish this, γH2AX and PARP-1 were measured after being treated NLF cells for 1, 4, or 24 hours at doses of 0.1, or 1 μCi/mL. Data was analyzed by quantifying small regions of interest in the nucleus of cells and by nuclear co-localization. […] In flow cytometry experiments, DNA damage was measured by quantifying phosphorylated ATM and H2AX. Lastly, cell cycle analysis was evaluated using propidium iodide staining in control vs. [^211At]-Compound 1 treated cells.

[3] = system: IMR-05 neuroblastoma xenograft; test: In vivo biodistribution in IMR-05 neuroblastoma xenograft model; design: species or system nude SHC mice; conditions: 5 μCi intravenously; for tumor versus normal tissue distribution of activity: 2 hrs
Procedure: To evaluate the in vivo biodistribution of [211A]-Compound 1, an IMR-05 neuroblastoma xenograft model in nude SHC mice was utilized. Xenografts were generated by the subcutaneous injection of 5-10 million IMR-05 neuroblastoma cells. Tumors were then allowed to engraft for 3-4 weeks when they reached 200-300 mm^3. Animals were then intravenously injected with 5 μCi of [211At]-Compound 1 and tissues were harvested at time points of […], 1 and 2 hrs. Samples were then assayed for radioactivity on a gamma counter and data was normalized to percent injected dose by divining the amount of radioactivity in the tissue by the total amount injected. […] Tissue was then flash frozen and 20 micron thick sections were produced using a cryotome. Sections were then exposed to phosphor films and films were read on a digital phosphorimager.

O=C1NCCn2c(-c3ccc([211At])cc3)nc3cccc1c32 [[^211At]-Compound 1]
specificity of cytotoxicity [1]: PARP-1 specific
increase in phosphorylation of ATM and H2AX (DNA double strand breaks) compared to control [2]: 98%
significant deastatination (accumulation of activity in lung, thyroid (neck), or stomach) [3]: not observed
tumor versus normal tissue distribution of activity [3]: concentration of activity in the tumor
tumor versus normal tissue distribution of activity ([3]; listed as 211At-Compound 1): higher tumor to tissue ratios in the majority of normal organs

Reference: patent US11161865B2, “Radiolabeled and fluorescent PARP inhibitors for imaging and radiotherapy” (THE TRUSTEES OF THE UNIVERSITY OF PENNSYLVANIA, priority 2017, dated 2021)
